Literature values in patent publication US20110166187A1, “METHODS OF USING SUSTAINED RELEASE AMINOPYRIDINE COMPOSITIONS” (priority 2004, published 2011).

Tested on: voltage dependent, neuronal potassium channels

Nc1ccncc1 [fampridine, 4-aminopyridine]
concentrations at which it appears to be a specific blocker of voltage dependent, neuronal potassium channels: 1 to 2 µM
